Results on 18 compounds are retold here after US5502061A, “Peptidyl substituted benzamides and naphthamies” (Eli Lilly and Company, priority 1994, dated 1996).

For the first experiment, the target named is T1, HIV-1 protease (Human immunodeficiency virus type 1 group M subtype B, UniProt P04585).
T1 construct: made in house; host or cells: E. coli K12 L507/pHP10D (NRRL B-18560)
Description: Fluorescence HIV-1 Protease Inhibitor Assay. Format: biochemical. Conditions: concentration giving 25% inhibition; the concentration of the compound was not increased above the stated concentration; normalized to positive control. The procedure: E. Fluorescence HIV-1 Protease Inhibitor Assay
The following buffers and solutions are used in the Fluorescence HIV-1 Protease Inhibitor Assay:
To each well of a round bottom, 96-well plate is added 20 μL of the Enzyme Solution followed by 10 μL of the compound to be evaluated in a 20% aqueous dimethylsulfoxide solution. Purified HIV-1 protease was obtained as described above. […] The solutions are then incubated for 16 hours at room temperature and then each well is diluted with 150 μL of MES-ALB buffer.
To each well of a second round bottom, 96-well Pandex plate is added 25 uL of the Avidin Coated Beads Solution. Then, to each well is added 25 μL of the diluted incubation solutions, prepared above. The solutions are mixed thoroughly and the plates are loaded into a Pandex® machine, washed, evacuated and read. Sample detection was performed by excitation at 485 nm, reading the resulting epifluorescence at 535 nm.
Turning to `CC(C)(C)NC(=O)c1ccccc1CC(O)C(Cc1ccccc1)NC(=O)C(CC(N)=O)NC(=O)C(NC(=O)OC(C)(C)C)c1ccccc1` (stereo not drawn) [Example 17, 2R-(2R*, 3S*, 6S*, 9R*)!-N-t-butyl-2-2-hydroxy-3-phenylmethyl-4,7-diaza 5,8-dioxo-6-(carbamoylmethyl)-9-N(t-butoxycarbonyl)amino-9-phenyl!nonyl benzamide], the “Fluorescence Assay IC25” value is 100 ng/mL.

The same experiment, now with this note: concentration giving 43% inhibition; the concentration of the compound was not increased above the stated concentration; normalized to positive control.
As for `CC(C)(C)NC(=O)c1ccccc1CC(O)C(Cc1ccccc1)NC(=O)C(N)CC(N)=O` (stereo not drawn) [Example 5B, 2R-(2R*, 3S*, 6S*)!-N-t-Butyl-2-2-hydroxy-3-phenylmethyl-4-aza-5-oxo-6-amino-7-carbamoyl!heptyl benzamide], the “Fluorescence Assay IC43” value amounted to 1000 ng/mL.

The same experiment, now with this note: purified HIV-1 protease, biotin/FITC-labelled peptide substrate, Pandex read-out; all values normalized to the positive control (= 1.0).
With `CC(C)(C)NC(=O)c1ccccc1CC(O)C(Cc1ccccc1)NC(=O)C(CC(N)=O)NC(=O)C(N)Cc1cccc2ccccc12` (stereo not drawn) [Example 7, 2R-(2R*, 3S*, 6S*, 9S*)!-N-t-Butyl-2-2-hydroxy-3-phenylmethyl-4,7-diaza-5,8-dioxo-6-(carbamoylmethyl)-9-amino-10-naphth-1-yl!decyl benzamide], the “Fluorescence Assay IC50” value is listed as 0.95 ng/mL.
The same measure, in the same setting: to `CC(C)(C)NC(=O)c1ccccc1CC(O)C(Cc1ccccc1)NC(=O)C(Cc1c[nH]cn1)NC(=O)C(Cc1cccc2ccccc12)NC(=O)OC(C)(C)C` (stereo not drawn) [Example 12, 2R-(2R*,3S*,6S*,9R*)!-N-t-Butyl-2-2-hydroxy-3-phenylmethyl-4,7-diaza-5,8-dioxo-6-(imidazol-4-ylmethyl)-9-N(t-butoxycarbonyl)amino-10-naphth-1-yl!decyl benzamide] belongs 1.6 ng/mL.
Consider `CC(C)C(NC(=O)C(N)Cc1cccc2ccccc12)C(=O)NC(Cc1ccccc1)C(O)Cc1ccccc1C(=O)NC(C)(C)C` (stereo not drawn) [Example 3, 2R-(2R*, 3S*, 6S*, 9S*)!-N-t-Butyl-2-2-hydroxy-3-phenylmethyl-5,8-dioxo-6-(1-methylethyl)-9-amino-10-naphth-1-yl!decyl benzamide], for which the “Fluorescence Assay IC50” value is 0.48 ng/mL.
The same measure, in the same setting: to `CC(C)(C)NC(=O)c1ccccc1CC(O)C(Cc1ccccc1)NC(=O)C(CC(N)=O)NC(=O)C(Cc1ccccc1)NC(=O)OC(C)(C)C` (stereo not drawn) [Example 10, 2R-(2R*, 3S*, 6S*, 9R* )!-N-t-Butyl-2-2-hydroxy-3-phenylmethyl-4,7-diaza-5,8-dioxo-6-(carbamoylmethyl)-9-N(t-butoxycarbonyl)amino-10-phenyl!decyl benzamide] belongs 1.67 ng/mL; to `CC(C)(C)NC(=O)c1ccccc1CC(O)C(Cc1ccccc1)NC(=O)C(CC(N)=O)NC(=O)C(Cc1cccc2ccccc12)NC(=O)OC(C)(C)C` (stereo not drawn) [Example 6, 2R-(2R*,3S*,6S*,9S*)!-N-t-Butyl-2-2-hydroxy-3-phenylmethyl-4,7-diaza-5,8-dioxo-6-(carbamoylmethyl)-9-N(t-butoxycarbonyl)amino-10-naphth-1-yl!decyl benzamide], 2.4 ng/mL; to `CC(C)(C)NC(=O)c1ccccc1CC(O)C(Cc1ccccc1)NC(=O)C(Cc1c[nH]cn1)NC(=O)C(Cc1cccc2ccccc12)NC(=O)OC(C)(C)C` (stereo not drawn) [Example 11C, 2R-(2R*,3S*,6S*,9S*)!-N-t-Butyl-2-2-hydroxy-3-phenylmethyl-4,7-diaza-5,8-dioxo-6-(imidazol-4-ylmethyl)-9-N(t-butoxycarbonyl)amino-10-naphth-1-yl!decyl benzamide], 7.78 ng/mL.
Same read-out and setting: with `CC(C)(C)NC(=O)c1ccccc1CC(O)C(Cc1ccccc1)NC(=O)C(CC(N)=O)NC(=O)C(Cc1c[nH]c2ccccc12)NC(=O)OC(C)(C)C` (stereo not drawn) [Example 14, 2R-(2R*, 3S*, 6S*, 9S*)!-N-t-Butyl-2-2-hydroxy-3-phenylmethyl-4,7-diaza-5,8-dioxo-6-(carbamoylmethyl)-9-N(t-butoxycarbonyl)amino-10-indol-3-yl!decyl benzamide] the figure was 0.93 ng/mL; with `CC(C)C(NC(=O)C(Cc1cccc2ccccc12)NC(=O)OC(C)(C)C)C(=O)NC(Cc1ccccc1)C(O)Cc1ccccc1C(=O)NC(C)(C)C` (stereo not drawn) [Example 1C, 2R-(2R*, 3S*, 6S*, 9S*)!-N-t-Butyl-2-2-hydroxy-3-phenylmethyl-4,7-diaza-5,8-dioxo-6-(1-methylethyl)-9-N(t-butoxycarbonyl)amino-10-naphth-1-yl!decyl benzamide], 1.44 ng/mL.
Turning to `CC(C)(C)NC(=O)c1ccccc1CC(O)C(Cc1ccccc1)NC(=O)C(CC(N)=O)NC(=O)C(Cc1cccc2ccccc12)NC(=O)OC(C)(C)C` (stereo not drawn) [Example 13, 2R-(2R*,3S*, 6R*,9S*)!-N-t-Butyl-2-2-hydroxy-3-phenylmethyl-4,7-diaza-5,8-dioxo-6-(carbamoylmethyl)-9-N(t-butoxycarbonyl)amino-10-naphth-1-yl!decyl benzamide], the “Fluorescence Assay IC50” value is greater than 10000 ng/mL.
As for `CC(C)C(NC(=O)C(Cc1cccc2ccccc12)NC(=O)OC(C)(C)C)C(=O)NC(Cc1ccccc1)C(O)Cc1ccccc1C(=O)NC(C)(C)C` (stereo not drawn) [Example 2, 2R-(2R*,3S*,6S*,9R*)!-N-t-Butyl-2-2-hydroxy-3-phenylmethyl-4,7-diaza-5,8-dioxo-6-(1-methylethyl)-9-N(t-butoxycarbonyl)amino-10-naphth-1-yl!decyl benzamide], the “Fluorescence Assay IC50” value was 3.13 ng/mL.
`CC(C)(C)NC(=O)c1ccccc1CC(O)C(Cc1ccccc1)NC(=O)C(CC(N)=O)NC(=O)C(Cc1ccccc1)NC(=O)OC(C)(C)C` (stereo not drawn) [Example 9, 2R-(2R*, 3S*, 6S*, 9S*)!-N-t-Butyl-2-2-hydroxy-3-phenylmethyl-4,7-diaza-5,8-dioxo-6-(carbamoylmethyl)-9-N(t-butoxycarbonyl)amino-10-phenyl!decyl benzamide]: the “Fluorescence Assay IC50” value is recorded as 1.76 ng/mL.
Take `CC(C)(C)NC(=O)c1cccc(CC(O)C(Cc2ccccc2)NC(=O)C(CC(N)=O)NC(=O)C(Cc2c[nH]c3ccccc23)NC(=O)OC(C)(C)C)c1` (stereo not drawn) [Example 15, 2R-(2R*, 3S*, 6S*, 9R*)!-N-t-Butyl-3-2-hydroxy-3-phenylmethyl-4,7-diaza-5,8-dioxo-6-(carbamoylmethyl)-9-N(t-butoxycarbonyl)amino-10-indol-3-yl!decyl benzamide]: the “Fluorescence Assay IC50” value stood at 1.05 ng/mL.
On the same count and under the same terms, to `CC(C)(C)NC(=O)c1ccccc1CC(O)C(Cc1ccccc1)NC(=O)C(CC(N)=O)NC(=O)C(NC(=O)OC(C)(C)C)c1ccccc1` (stereo not drawn) [Example 16, 2R-(2R*, 3S*, 6S*, 9S*)!-N-t-Butyl-2-2-hydroxy-3-phenylmethyl-4,7-diaza-5,8-dioxo-6-(carbamoylmethyl)-9-N(t-butoxycarbonyl)amino-9-phenyl!nonyl benzamide] belongs 106 ng/mL; to “2R-(3R*,3S*,6S*,9R*)!-N-t-Butyl-2- 2-hydroxy-3-phenylmethyl-4,7-diaza -5,8,dioxo-6-(carbamoylmethyl)-9-amino-10-naphth-1-yl!decyl benzamide [Example 8]”, 2.28 ng/mL; to `CC(C)(C)NC(=O)c1ccccc1CC(O)C(Cc1ccccc1)NC(=O)C(CC(N)=O)NC(=O)C(Cc1cccc2ccccc12)NC(=O)OC(C)(C)C` (stereo not drawn) [Example 5C, 2R-(2R*,3S*, 6S*,9R*)!-N-t-Butyl-2-2-hydroxy-3-phenylmethyl-4,7-diaza-5,8-dioxo-6-(carbamoylmethyl)-9-N(t-butoxycarbonyl))amino-10-naphth-1-yl!decyl benzamide], 0.53 ng/mL.
The same measure, in the same setting: with “2R- (2R*, 3S*, 6S*, 9R*)!-N-t-Butyl-2- 2-hydroxy-3-phenylmethyl-4,7-diaza -2,8-dioxo-6-(1-methylethyl)-9-amino-10-naphth-1-yl!benzamide [Example 4]” the figure was 2.48 ng/mL.
